Row | SMILES | melting point [°C]
1 | C=C1CCCC2(C)C1=CC(=O)C1C3CCC(=O)C3(C)CCC12 (stereo not given) | 132
2 | CCCCCCNC1=CC(=O)c2c(OC)ccc(OC)c2C1=O | 83 to 84
3 | CCOC(=O)CN(C(=O)N1CCN(c2cc(C)cc(C)c2)CC1)c1cc(C(C)O)c(C)nc1OC (stereo not given) | 68 to 70
4 | Cc1ccnc(C(=O)n2cc(CC(=O)N(C)C)c3ccc(Cl)cc32)c1 | 208
5 | Cc1n[nH]c(C)c1-c1ccc(OC2SCC(O)C(O)C2O)cn1 (stereo not given) | 210
6 | Cc1cncn1-c1cc(N)cc(C(F)(F)F)c1 | 131 to 133
7 | CCCC(=O)c1cnc2c(OC)cccc2c1Nc1ccc(OC(=O)CC)cc1C | 163 to 165
8 | CC(C)(C)N1CC(=O)Nc2cccc(Cl)c21 | 198
9 | CCC(CC)COc1c(-c2ccc(S(C)(=O)=O)cc2)cnn(-c2ccc(F)cc2)c1=O | 107 to 108
10 | COc1ccc(-c2nc(CO)c[nH]2)cc1 | 171 to 173
11 | NS(=O)(=O)c1ccc(S(=O)(=O)NCc2cccs2)s1 | 146 to 148
12 | COc1ccc([N+](=O)[O-])c(C#N)c1C | 128 to 130
13 | CC(=O)Nc1cc([N+](=O)[O-])cc([N+](=O)[O-])c1 | 189 to 191
14 | CCCC(=O)Nc1n[nH]c2cc(-c3ccc(C(C)(C)C)cc3)ccc12 | 246
15 | Cc1cc(C)c(Cc2nc(C)nc(O)c2C)c(C)c1 | 260 to 262
16 | COc1ccc(C(=CNC(=O)c2sc3ccc(C(F)(F)F)cc3c2O)c2ccc(OC)cc2)cc1 | 178 to 183
17 | CNC(=O)Oc1ccc(N=C(C)c2ccccc2O)c(C)c1 | 133 to 138
18 | CCCOC(=O)C1=C(N)NC(C)=C(C(=O)OCC)C1c1cccc([N+](=O)[O-])c1 (stereo not given) | 168
19 | CCOC(=O)Nc1csc2cc(OC)ccc12 | 88
20 | CS(=O)c1ccc(-c2nn(Cc3ccc(Cl)cc3Cl)c(=O)cc2-c2ccc(Cl)cc2)cc1 (stereo not given) | 236 to 237
21 | N#CN=C(Nc1cccnc1)NC(NC(=O)c1ccc(Cl)cc1)C(Cl)(Cl)Cl (stereo not given) | 126 to 128
22 | CC(C)(C)C(=O)Nc1nc(O)c2cc(CCc3ccc(C(=O)O)cc3)cnc2n1 | > 300
23 | Cc1cc(C(=O)O)c(N)cc1Cl | 212 to 215
24 | Cc1ccc(C(=O)O)c(Nc2cc(C)nn2C)c1 | 188 to 192

Row | SMILES | melting point [°C]
25 | CCCC1CC(NCC)=C(c2cccc(C(F)(F)F)c2)C1=O (stereo not given) | 120
26 | CS(=O)(=O)Nc1cc(NS(C)(=O)=O)cc([N+](=O)[O-])c1 | 223 to 224
27 | CSC(=NCCN(C)C)NC#N | 94 to 95
28 | CCC(=O)Nc1cc(F)ccc1C(=O)O | 170 to 171
29 | COc1ccc(N)c(SSc2cc(OC)ccc2N)c1 | 78 to 80
30 | O=C(O)CC1(O)CC(CCCCCCc2ccc(Cl)cc2Cl)OC1=O (stereo not given) | 77 to 79
31 | C[Si](C)(C)C#Cc1c(F)c(F)c(F)c(C#C[Si](C)(C)C)c1F | 55 to 57
32 | COc1ccc2c(Cc3c(Cl)cncc3Cl)nn3nnnc3c2c1 | 275 to 276
33 | COC(=O)CCCc1ccc(S(=O)(=O)Nc2ccc(Cl)cc2)cn1 | 80 to 81
34 | CN1CCN(c2nc3ccc(Br)c4c3n2CCC4)CC1 | 132 to 133
35 | COC(=O)Cn1c(=O)sc2cc(Br)c(Cl)cc21 | 209 to 210
36 | O=C(O)c1cc(Br)cc([N+](=O)[O-])c1Br | 225 to 229
37 | CC(C#Cc1cccc(Oc2nccs2)c1)N(O)C(N)=O (stereo not given) | 118 to 119
38 | CCCn1cc(Cc2ccc(C(=O)O)cc2OC)c2cc(C=CCC(=O)N(C)C)ccc21 | 124 to 126
39 | CC(C)(C)OC(=O)N1CC2(C[C@H]1C(=O)OCOC(=O)C(C)(C)C)SCCS2 | 79.5 to 81
40 | CC(C)(C)OC(=O)c1ccc[nH]1 | 87 to 89
41 | CCCc1nc2c(N)nc3cc(OCCCNS(C)(=O)=O)ccc3c2n1CC(C)C | 166 to 168
42 | CCCCCCCCCCCCCCCCCCOc1ccc2c(c1OCCCCCCCCCCCCCCCCCC)C(=O)c1ccccc1C2=O | 100 to 107
43 | CC(Br)=C(c1ccc(N(C)C)cc1)c1ccc(N(C)C)cc1 | 119 to 122
44 | CCc1cccc(CC)c1NCC(=O)NN | 71 to 73
45 | CCCC1=C(CCC)C1(C(=O)Nc1ccc(Br)cc1C)C(=O)OC | 52 to 54
46 | CCn1c(=O)c(=O)[nH]c2cccc(C)c21 | > 300
47 | O=C1CN=C(c2ccccc2Cl)c2ccsc2N1 | 221 to 223

Now from value to compound:

Row | melting point [°C] | SMILES
48 | 173 to 174 | CC(=O)Nc1cc2c(cc1C#N)C(Nc1ccc(C(=O)OC(C)(C)C)cc1)CC2 (stereo not given)
49 | 45 to 49 | CC#Cc1ncccc1C(=O)c1ccccc1Cl
50 | 189 to 191 | COc1cc(Nc2c(C#N)cnc3cc(-c4ccc(CN5CCN(C)CC5)cc4)sc23)cc(OC)c1OC
51 | 108 to 109 | COC(=O)NC1CCc2sccc2C1 (stereo not given)
52 | 180 to 182 | COc1cc2c(cc1C)C1(CO2)C(=O)N(CC2CCCCO2)c2ccccc21 (stereo not given)
53 | 246 to 248 | CCNc1ccc2c(c1)CN(c1cc3c(cc1F)c(=O)c(C(=O)O)cn3CC)C2
54 | 146 to 148 | Cc1ccc(-n2nc(N3CCN(C(N)=O)CC3)c3ccccc32)cc1
55 | 190 to 191 | O=C(Nc1ccc(C(=O)N2Cc3ccccc3Cc3ccccc32)cc1)c1cccc(C(F)(F)F)c1
56 | 128 to 129 | CCOC(=O)C(=Cc1ccccn1)C(=O)c1ccc(F)cc1
57 | 122 to 124 | Nc1cc(Oc2ccccc2)c([N+](=O)[O-])cc1Cl
58 | 130 to 133 | Fc1ccc2onc(CCCN3CCN(c4cc5ccccc5cn4)CC3)c2c1
59 | 71 to 74 | CC12CCC3c4ccccc4CCC3C1CCC2NCc1ccccc1 (stereo not given)
60 | 117 to 119 | CC(C)(C)OC(=O)N1CCC(Oc2ccc(-c3ccc(=O)[nH]n3)c(F)c2)CC1
61 | 161 | c1ccc(COc2ccc3ccc(OCc4ccccc4)cc3c2)cc1
62 | 93 to 94 | COC1=C(C)C(=O)c2ccccc2C1=O
63 | 290 to 292 | Cc1nc(NC(=O)c2cc[nH]c(=O)c2)sc1C(=O)NCc1ccccc1
64 | 179 to 180 | CCCCCNC(=O)c1cn2nc(N3CCN(C(=O)c4ccccc4C(F)(F)F)CC3)ccc2n1
65 | 194 to 196 | COc1cc(C(=O)NC2CCN(C)CC2)c(F)cc1Nc1ncc2c(n1)N(C1CCCC1)CC(F)(F)C(=O)N2C
66 | 42 to 43 | Cc1cc(OCc2ccccc2)ccc1OCc1ccccc1
67 | 159 to 162 | CC(C)C[C@H](NC(=O)[C@H](Cc1c[nH]cn1)NC(=O)[C@H](Cc1ccccc1)NC(=O)OCc1ccccc1)[C@H](O)CO
68 | 87 to 89 | O=C(NCC1Cc2cccc(-c3ccc(Cl)cc3Cl)c2O1)OCc1ccccc1 (stereo not given)
69 | 104 to 105 | COC1(c2cc(F)cc(Sc3ccc(CONC(N)=O)cc3)c2)CCOCC1
70 | 95.5 to 97.3 | O=C(Cc1ccncc1)c1ccc(Cl)cc1
71 | 118 to 120 | COC(=O)C(CNC(C)=O)c1cccc2ccc(OC)cc12 (stereo not given)
72 | 248 to 252 | O=P(c1ccccc1)(c1ccccc1)c1ccc(P(=O)(c2ccccc2)c2ccccc2)nn1
73 | 215 to 217 | CCn1c(C)c(C2(c3ccc(OC)cc3OC)OC(=O)c3cc(N(C)C)ccc32)c2ccccc21 (stereo not given)
74 | 178 to 183 | O=C(O)CCc1ccc(Oc2ccc3c(c2)S(=O)(=O)NC2CCCN32)cc1 (stereo not given)

Row | melting point [°C] | SMILES
75 | 189 | O=C(NCCc1ccccc1)Nc1ccc([N+](=O)[O-])cc1O
76 | 218 to 220 | Cc1ccccc1CN1CCC(n2c(C)c(-c3ccccc3)[nH]c2=O)CC1
77 | 181 to 182 | C#Cc1cnn2c(C3CC3)cc(-c3ccc(Cl)cc3)nc12
78 | 122 to 123 | COc1ccc(CS[C@H]2C[C@@H](C(N)=O)N(CCF)C2)cc1
79 | 180 to 182 | CC(C)(C)c1ccc(Nc2nnc(Cc3cnc(O)c(-c4ccco4)c3)c3ccccc23)cc1
80 | 128 to 130 | O=C(O)CCc1ccc2c(c1)C(=O)c1ccccc1CO2
81 | 158 to 160 | CC(C)C(NC(=O)N(C)Cc1ccccn1)C(=O)N(C(=O)C(NC(=O)N(C)Cc1nccs1)C(C)C)C(Cc1ccccc1)C(O)CCCc1ccccc1 (stereo not given)
82 | 210 to 213 | COc1ccc(C(=O)Nc2c(Cl)cncc2Cl)c2c3cc(Cl)ccc3n(Cc3ccccc3)c12
83 | 233 to 234 | N=C(N)c1ccc(C(=O)N2CCCCC2C(=O)N2CCC(OCC(=O)O)CC2)cc1 (stereo not given)
84 | 70 to 72 | CC(C)C(OCc1ccccc1)[C@H]1[C@H]([N+](=O)[O-])[C@@H](c2ccco2)N[C@@H]1C(=O)NCCC(=O)O (stereo not given in full)
85 | 45 to 53 | O=C1COc2ccccc2O1
86 | 167 to 168 | Cc1c(NC(=O)c2ccc(OCc3ccc(Cl)cc3)cc2)ccc2cc(CN3CCCC3)cnc12
87 | 142 | CC(C)c1ccc(C(=O)NC/C=C/c2ccccc2)cc1
88 | 160 to 162 | CCCOc1cc(C(=O)O)cc([N+](=O)[O-])c1C(=O)c1ccccc1
89 | 265 to 266 | O=C(O)COc1ccc2c(c1)C[C@H](NC[C@H](O)c1cccc(Cl)c1)CCC2
90 | 134 to 135 | Cc1cc(C)nc(N(C=O)c2ccccc2)n1
91 | 123 to 124 | CC(C)(NCc1ccc(Oc2ccc3c(c2)OCO3)cc1)C(N)=O
92 | 67 to 69 | N#Cc1ccc(Oc2cccc(F)c2)cc1
93 | 190 to 192 | Cc1nc(Cl)c2c(n1)CN=C(c1ccccc1)c1cc(Cl)ccc1-2
94 | 152 | COc1cc(-c2nc3ccccc3n2Cc2ccccc2Br)cc(OC)c1OC
95 | 216 to 220 | COc1cc(C(=O)NNC(=O)c2occ(-c3ccccc3)c2-c2ccccc2)ccc1O
96 | 106 to 108 | COc1nc(C)cnc1NS(=O)(=O)c1cccnc1-c1ccc(COCCO)cc1
97 | 117 to 118 | COc1cc(C(O)c2ccnc3ccccc23)ccc1OCc1ccccc1 (stereo not given)
98 | 140 to 142 | Cc1c(F)cccc1Cc1c(-c2ccccc2)c2cccnn2c1C(=O)N1CCNCC1
99 | 197 to 202 | CCCCCC(C)N(Cc1ccnc2ccccc12)C(Nc1ccc(OC)cc1OC)=C1C(=O)OC(C)(C)OC1=O (stereo not given)
100 | 55 to 57 | CC1CNC(CC(c2ccccc2)c2ccccc2)=N1 (stereo not given)
